Source: US11780901B2, “Analogues of parathyroid hormone (1-34) that function as agonists of the parathyroid hormone receptor-1 and display modified activity profiles” (Wisconsin Alumni Research Foundation, priority 2013, dated 2023)
Like-named read-outs stand apart in the source and are kept apart here. Starred links: 1 amine or outer side, 2 acyl side, 3 side chain; linkers in the order of their positions; H or OH if unused. Non-standard residues stand in square brackets, D forms with d. Residues, ends and D or L forms follow the SMILES beside them. *: point of attachment. X4 = O=C(O)CC[C@@H](CN[*:1])C(=O)[*:2]; X11 = NC[C@H](CO)C(=O)*; X8 = NC[C@@H](CO)C(=O)*

Columns and labels:
PTHR2 = PTHR2 (Homo sapiens, UniProt P49190); test: PTHR2 activation, cAMP production (GloSensor) in HEK293 cells; assay type: cell-based; set-up: expressed in transfected cells; key to PTHR2 Activation: Derivative EC50/PTH EC50: *** denotes poor tolerance of β amino acid for PTHR2 activation; conditions: for EC50: HEK-293 cells, GloSensor cAMP, read-out: EC50 (nM) of PTHR2 Activation; for PTHR2 Activation: Derivative EC50/PTH EC50: normalized to EC50 of PTH(1-34)-NH2 ([…] printed), cAMP production
Chain of PTHR2 (P49190 25-550): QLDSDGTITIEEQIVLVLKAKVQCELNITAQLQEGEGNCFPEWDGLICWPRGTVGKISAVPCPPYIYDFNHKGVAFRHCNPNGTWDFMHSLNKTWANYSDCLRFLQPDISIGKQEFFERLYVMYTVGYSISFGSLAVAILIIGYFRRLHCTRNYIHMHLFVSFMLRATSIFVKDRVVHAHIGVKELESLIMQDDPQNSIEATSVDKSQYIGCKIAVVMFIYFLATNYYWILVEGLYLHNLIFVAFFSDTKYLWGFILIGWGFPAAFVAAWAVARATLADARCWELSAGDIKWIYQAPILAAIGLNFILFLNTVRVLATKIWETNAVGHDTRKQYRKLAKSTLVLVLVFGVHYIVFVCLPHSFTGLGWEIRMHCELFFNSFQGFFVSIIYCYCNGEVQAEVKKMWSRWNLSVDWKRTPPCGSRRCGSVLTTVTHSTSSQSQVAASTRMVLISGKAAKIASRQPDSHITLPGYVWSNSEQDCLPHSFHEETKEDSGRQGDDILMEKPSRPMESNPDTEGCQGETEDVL
Text: The assays employ HEK-293 cells that have been engineered to express the appropriate receptor. GloSensor-based detection of cAMP provides a read-out of receptor activation. […] (Carter, P. H. et al. Actions of the Small Molecule Ligands SW106 and AH-3960 on the Type-1 Parathyroid Hormone Receptor. Molecular Endocrinology 29, 307-321 (2015).)
FIGS. 10A and 10B depict dose-response curves of PTHR1 activation (FIG. 10A) and PTHR2 activation (FIG. 10B) in HEK293 cells stably expressing PTHR1 or PTHR2. For PTHR1 activation and all the binding data, data represent mean±s.e.m from three independent measurements; For PTHR2 activation, data represent mean±s.e.m from four independent measurements. Curves were fit to the data using a four-parameter sigmoidal dose-response equation.

PTHR1 = target: T1, PTHR1 (Homo sapiens, UniProt Q03431); test: PTHR1 activation, cAMP production (GloSensor) in HEK293 cells; assay type: cell-based; set-up: expressed in transfected cells; conditions: for PTHR1 Activation: Derivative EC50/PTH EC50: normalized to EC50 of PTH(1-34)-NH2 ([…]), cAMP production
T1 sequence (Q03431 27-593): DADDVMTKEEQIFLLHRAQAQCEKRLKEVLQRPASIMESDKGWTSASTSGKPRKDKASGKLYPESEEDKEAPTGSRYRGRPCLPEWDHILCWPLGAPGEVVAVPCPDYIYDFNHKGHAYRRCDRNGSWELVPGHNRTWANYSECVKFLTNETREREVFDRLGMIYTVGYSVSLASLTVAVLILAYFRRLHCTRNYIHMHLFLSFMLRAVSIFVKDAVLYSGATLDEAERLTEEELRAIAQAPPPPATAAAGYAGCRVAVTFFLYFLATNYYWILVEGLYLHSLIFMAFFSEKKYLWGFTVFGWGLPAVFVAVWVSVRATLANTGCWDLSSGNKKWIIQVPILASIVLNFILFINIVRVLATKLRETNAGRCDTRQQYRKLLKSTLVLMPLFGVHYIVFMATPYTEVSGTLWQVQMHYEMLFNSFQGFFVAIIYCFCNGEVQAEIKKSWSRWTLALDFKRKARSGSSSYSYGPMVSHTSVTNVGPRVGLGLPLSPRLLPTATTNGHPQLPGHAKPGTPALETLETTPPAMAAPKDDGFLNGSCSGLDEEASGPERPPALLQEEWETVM
Text: The assays employ HEK-293 cells that have been engineered to express the appropriate receptor. GloSensor-based detection of cAMP provides a read-out of receptor activation.
For PTHR1 activation and all the binding data, data represent mean±s.e.m from three independent measurements; For PTHR2 activation, data represent mean±s.e.m from four independent measurements. Curves were fit to the data using a four-parameter sigmoidal dose-response equation.
For cAMP dose-response assays, monolayers of confluent HEK 293 cells were pre-incubated with buffer containing d-luciferin (0.5 mM) in 96 well plates at room temperature until a stable baseline level of luminescence was established (30 min). Varying concentrations of agonist were then added, and the time course of luminescence response was recorded using a Perkin Elmer plate reader following α/β-peptide addition.

[1] = HEK-293 cells, GloSensor cAMP, read-out: EC50 (nM) of PTHR1 Activation
[2] = Table 8, hPTHR1, read-out: PTHR1 EC50

Structure (SMILES) | EC50 (PTHR1; [1]) [nM] | EC50 (PTHR1; [2]) [nM] | PTHR1 Activation: Derivative EC50/PTH EC50 (PTHR1) | EC50 (PTHR2) [nM] | PTHR2 Activation: Derivative EC50/PTH EC50 (PTHR2)
CC[C@H](C)[C@H](NC(=O)[C@@H](CCC(=O)O)CNC(=O)[C@H](CO)NC(=O)[C@@H](NC(=O)[C@@H](N)CO)C(C)C)C(=O)N[C@@H](CCC(N)=O)C(=O)N[C@@H](CC(C)C)C(=O)N[C@@H](CCSC)C(=O)N[C@@H](Cc1c[nH]cn1)C(=O)N[C@@H](CC(N)=O)C(=O)N[C@@H](CC(C)C)C(=O)NCC(=O)N[C@@H](CCCCN)C(=O)N[C@@H](Cc1c[nH]cn1)C(=O)N[C@@H](CC(C)C)C(=O)N[C@@H](CC(N)=O)C(=O)N[C@@H](CO)C(=O)N[C@@H](CCSC)C(=O)N[C@@H](CCC(=O)O)C(=O)N[C@@H](CCCNC(=N)N)C(=O)N[C@H](C(=O)N[C@@H](CCC(=O)O)C(=O)N[C@@H](Cc1c[nH]c2ccccc12)C(=O)N[C@@H](CC(C)C)C(=O)N[C@@H](CCCNC(=N)N)C(=O)N[C@@H](CCCCN)C(=O)N[C@@H](CCCCN)C(=O)N[C@@H](CC(C)C)C(=O)N[C@@H](CCC(N)=O)C(=O)N[C@@H](CC(=O)O)C(=O)N[C@H](C(=O)N[C@@H](Cc1c[nH]cn1)C(=O)N[C@@H](CC(N)=O)C(=O)N[C@@H](Cc1ccccc1)C(N)=O)C(C)C)C(C)C [SEQ. ID. NO: 33] (H-SVS[X4]IQLMHNLGKHLNSMERVEWLRKKLQDVHNF-NH2; N-terminus assumed) | 10.8 ± 0.47 | > 100 | 28.42 | > 100 | ***
CC[C@H](C)[C@H](NC(=O)C[C@H](CCC(=O)O)NC(=O)[C@H](CO)NC(=O)[C@@H](NC(=O)[C@@H](N)CO)C(C)C)C(=O)N[C@@H](CCC(N)=O)C(=O)N[C@@H](CC(C)C)C(=O)N[C@@H](CCSC)C(=O)N[C@@H](Cc1c[nH]cn1)C(=O)N[C@@H](CC(N)=O)C(=O)N[C@@H](CC(C)C)C(=O)NCC(=O)N[C@@H](CCCCN)C(=O)N[C@@H](Cc1c[nH]cn1)C(=O)N[C@@H](CC(C)C)C(=O)N[C@@H](CC(N)=O)C(=O)N[C@@H](CO)C(=O)N[C@@H](CCSC)C(=O)N[C@@H](CCC(=O)O)C(=O)N[C@@H](CCCNC(=N)N)C(=O)N[C@H](C(=O)N[C@@H](CCC(=O)O)C(=O)N[C@@H](Cc1c[nH]c2ccccc12)C(=O)N[C@@H](CC(C)C)C(=O)N[C@@H](CCCNC(=N)N)C(=O)N[C@@H](CCCCN)C(=O)N[C@@H](CCCCN)C(=O)N[C@@H](CC(C)C)C(=O)N[C@@H](CCC(N)=O)C(=O)N[C@@H](CC(=O)O)C(=O)N[C@H](C(=O)N[C@@H](Cc1c[nH]cn1)C(=O)N[C@@H](CC(N)=O)C(=O)N[C@@H](Cc1ccccc1)C(N)=O)C(C)C)C(C)C [SEQ. ID. NO: 41] |  |  |  | 60.1 ± 9.82 | 
CC[C@H](C)[C@H](NC(=O)[C@H](CCC(=O)O)NC(=O)[C@H](CO)NC(=O)[C@@H](NC(=O)[C@@H](CN)CO)C(C)C)C(=O)N[C@@H](CCC(N)=O)C(=O)N[C@@H](CC(C)C)C(=O)N[C@@H](CCSC)C(=O)N[C@@H](Cc1c[nH]cn1)C(=O)N[C@@H](CC(N)=O)C(=O)N[C@@H](CC(C)C)C(=O)NCC(=O)N[C@@H](CCCCN)C(=O)N[C@@H](Cc1c[nH]cn1)C(=O)N[C@@H](CC(C)C)C(=O)N[C@@H](CC(N)=O)C(=O)N[C@@H](CO)C(=O)N[C@@H](CCSC)C(=O)N[C@@H](CCC(=O)O)C(=O)N[C@@H](CCCNC(=N)N)C(=O)N[C@H](C(=O)N[C@@H](CCC(=O)O)C(=O)N[C@@H](Cc1c[nH]c2ccccc12)C(=O)N[C@@H](CC(C)C)C(=O)N[C@@H](CCCNC(=N)N)C(=O)N[C@@H](CCCCN)C(=O)N[C@@H](CCCCN)C(=O)N[C@@H](CC(C)C)C(=O)N[C@@H](CCC(N)=O)C(=O)N[C@@H](CC(=O)O)C(=O)N[C@H](C(=O)N[C@@H](Cc1c[nH]cn1)C(=O)N[C@@H](CC(N)=O)C(=O)N[C@@H](Cc1ccccc1)C(N)=O)C(C)C)C(C)C [SEQ. ID. NO: 22] (X8-VSEIQLMHNLGKHLNSMERVEWLRKKLQDVHNF-NH2) | 0.35 ± 0.06 |  |  | 5.97 ± 1.21 | 
CC[C@H](C)[C@H](NC(=O)[C@H](CCC(=O)O)NC(=O)[C@H](CO)NC(=O)[C@H](CNC(=O)[C@@H](N)CO)C(C)C)C(=O)N[C@@H](CCC(N)=O)C(=O)N[C@@H](CC(C)C)C(=O)N[C@@H](CCSC)C(=O)N[C@@H](Cc1c[nH]cn1)C(=O)N[C@@H](CC(N)=O)C(=O)N[C@@H](CC(C)C)C(=O)NCC(=O)N[C@@H](CCCCN)C(=O)N[C@@H](Cc1c[nH]cn1)C(=O)N[C@@H](CC(C)C)C(=O)N[C@@H](CC(N)=O)C(=O)N[C@@H](CO)C(=O)N[C@@H](CCSC)C(=O)N[C@@H](CCC(=O)O)C(=O)N[C@@H](CCCNC(=N)N)C(=O)N[C@H](C(=O)N[C@@H](CCC(=O)O)C(=O)N[C@@H](Cc1c[nH]c2ccccc12)C(=O)N[C@@H](CC(C)C)C(=O)N[C@@H](CCCNC(=N)N)C(=O)N[C@@H](CCCCN)C(=O)N[C@@H](CCCCN)C(=O)N[C@@H](CC(C)C)C(=O)N[C@@H](CCC(N)=O)C(=O)N[C@@H](CC(=O)O)C(=O)N[C@H](C(=O)N[C@@H](Cc1c[nH]cn1)C(=O)N[C@@H](CC(N)=O)C(=O)N[C@@H](Cc1ccccc1)C(N)=O)C(C)C)C(C)C [SEQ. ID. NO: 31] | 6.97 ± 1 | 4.72 ± 1.04 | 18.34 | 4.72 ± 1.04 | 5.43

More lines, main results first:

EC50 (PTHR1; [1]) [nM] | EC50 (PTHR1; [2]) [nM] | PTHR1 Activation: Derivative EC50/PTH EC50 (PTHR1) | Structure (SMILES) | EC50 (PTHR2) [nM] | PTHR2 Activation: Derivative EC50/PTH EC50 (PTHR2)
3.4 ± 1.22 |  |  | CC[C@H](C)[C@@H](CC(=O)N[C@@H](CCC(N)=O)C(=O)N[C@@H](CC(C)C)C(=O)N[C@@H](CCSC)C(=O)N[C@@H](Cc1cnc[nH]1)C(=O)N[C@@H](CC(N)=O)C(=O)N[C@@H](CC(C)C)C(=O)NCC(=O)N[C@@H](CCCCN)C(=O)N[C@@H](Cc1cnc[nH]1)C(=O)N[C@@H](CC(C)C)C(=O)N[C@@H](CC(N)=O)C(=O)N[C@@H](CO)C(=O)N[C@@H](CCSC)C(=O)N[C@@H](CCC(=O)O)C(=O)N[C@@H](CCCNC(=N)N)C(=O)N[C@H](C(=O)N[C@@H](CCC(=O)O)C(=O)N[C@@H](Cc1c[nH]c2ccccc12)C(=O)N[C@@H](CC(C)C)C(=O)N[C@@H](CCCNC(=N)N)C(=O)N[C@@H](CCCCN)C(=O)N[C@@H](CCCCN)C(=O)N[C@@H](CC(C)C)C(=O)N[C@@H](CCC(N)=O)C(=O)N[C@@H](CC(=O)O)C(=O)N[C@H](C(=O)N[C@@H](Cc1cnc[nH]1)C(=O)N[C@@H](CC(N)=O)C(=O)N[C@@H](Cc1ccccc1)C(N)=O)C(C)C)C(C)C)NC(=O)[C@H](CCC(=O)O)NC(=O)[C@H](CO)NC(=O)[C@@H](NC(=O)[C@@H](N)CO)C(C)C [SEQ. ID. NO: 42] |  | 
 | 1.55 ± 0.3 |  | CC[C@H](C)[C@H](NC(=O)[C@H](CCC(=O)O)NC(=O)[C@H](CO)NC(=O)[C@@H](NC(=O)[C@H](CN)CO)C(C)C)C(=O)N[C@@H](CCC(N)=O)C(=O)N[C@@H](CC(C)C)C(=O)N[C@@H](CCSC)C(=O)N[C@@H](Cc1c[nH]cn1)C(=O)N[C@@H](CC(N)=O)C(=O)N[C@@H](CC(C)C)C(=O)NCC(=O)N[C@@H](CCCCN)C(=O)N[C@@H](Cc1c[nH]cn1)C(=O)N[C@@H](CC(C)C)C(=O)N[C@@H](CC(N)=O)C(=O)N[C@@H](CO)C(=O)N[C@@H](CCSC)C(=O)N[C@@H](CCC(=O)O)C(=O)N[C@@H](CCCNC(=N)N)C(=O)N[C@H](C(=O)N[C@@H](CCC(=O)O)C(=O)N[C@@H](Cc1c[nH]c2ccccc12)C(=O)N[C@@H](CC(C)C)C(=O)N[C@@H](CCCNC(=N)N)C(=O)N[C@@H](CCCCN)C(=O)N[C@@H](CCCCN)C(=O)N[C@@H](CC(C)C)C(=O)N[C@@H](CCC(N)=O)C(=O)N[C@@H](CC(=O)O)C(=O)N[C@H](C(=O)N[C@@H](Cc1c[nH]cn1)C(=O)N[C@@H](CC(N)=O)C(=O)N[C@@H](Cc1ccccc1)C(N)=O)C(C)C)C(C)C [SEQ. ID. NO: 30] (X11-VSEIQLMHNLGKHLNSMERVEWLRKKLQDVHNF-NH2) |  | 
